Source: patent publication US10059687B2, “Histone demethylase inhibitors” (CELGENE QUANTICEL RESEARCH, INC., priority 2015, dated 2018)

Columns and labels:
JMJD2C = JMJD2C (Homo sapiens (Human), UniProt Q9H3R0); assay: In vitro enzyme inhibition assay for JMJD2C activity (TR-FRET); type: biochemical; conditions: Table 5; one class given per A and B pair
Description: This assay determines the ability of a test compound to inhibit JMJD2C demethylase activity. Baculovirus expressed JMJD2C (GenBank Accession #BC143571, AA 2-372) was purchased from BPS Bioscience (Cat#50105).
The ability of test compounds to inhibit the activity of JMJD2C was determined in 384-well plate format under the following reaction conditions: 0.3 nM JMJD2C, 300 nM H3K9me3-biotin labeled peptide (Anaspec cat #64360), 2 μM alpha-ketoglutaric acid in assay buffer of 50 mM HEPES, pH7.3, 0.005% Brij35, 0.5 mM TCEP, 0.2 mg/ml BSA, 50 μM sodium L-ascorbate, and 2 μM ammonium iron(II) sulfate. Reaction product was determined quantitatively by TR-FRET after the addition of detection reagent Phycolink Streptavidin-allophycocyanin (Prozyme) and Europium-anti-di-methylated histone H3 lysine 9 (H3K9me2) antibody (PerkinElmer) in the presence of 5 mM EDTA in LANCE detection buffer (PerkinElmer) at a final concentration of 50 nM and 1 nM, respectively.
(§1) The assay reaction was initiated by the following: 2 μl of the mixture of 900 nM H3K9me3-biotin labeled peptide and 6 μM alpha-ketoglutaric acid with 2 μl of 11-point serial diluted inhibitor in 3% DMSO were added to each well of the plate, followed by the addition of 2 μl of 0.9 nM JMJD2C to initiate the reaction. The reaction mixture was incubated at RT for 30 min, and terminated by the addition of 6 μl of 5 mM EDTA in LANCE detection buffer containing 100 nM Phycolink Streptavidin-allophycocyanin and 2 nM Europium-anti-H3K9me2 antibody. Plates were read by EnVisionMultilabel Reader in TR-FRET mode (excitation at 320 nm, emission at 615 nm and 665 nm) after 1 hr incubation at RT. A ratio was calculated (665/615) for each well and fitted to determine inhibition constant (IC50).

Jarid1B = Jarid1B (Homo sapiens (Human), UniProt Q9UGL1); assay: In vitro enzyme inhibition assay for Jarid1B activity (TR-FRET); type: biochemical; conditions: Table 5; one class given per A and B pair
Description: The ability of test compounds to inhibit the activity of Jarid1B was determined in 384-well plate format under the following reaction conditions: 0.8 nM Jarid1B, 300 nM H3K4me3-biotin labeled peptide (Anaspec cat #64357), 2 μM alpha-ketoglutaric acid in assay buffer of 50 mM HEPES, pH7.3, 0.005% Brij35, 0.5 mM TCEP, 0.2 mg/ml BSA, 50 μM sodium L-ascorbate, and 2 μM ammonium iron(II) sulfate. Reaction product was determined quantitatively by TR-FRET after the addition of detection reagent Phycolink Streptavidin-allophycocyanin (Prozyme) and Europium-anti-H3K4me or -H3K4me2 antibody (PerkinElmer) in the presence of 5 mM EDTA in LANCE detection buffer (PerkinElmer) at a final concentration of 25 nM and 1 nM, respectively.
as §1, with “nM H3K4me3-biotin” for “nM H3K9me3-biotin”, “DMSO was” for “DMSO were”, “of 2.4” for “of 0.9”, “nM Jarid1B” for “nM JMJD2C”, “containing 50” for “containing 100”, “nM Europium-anti-H3K4me/H3K4me2” for “nM Europium-anti-H3K9me2”

[1] = test system: esophageal squamous cell carcinoma KYSE-150 cells; assay: Cellular IC50 in KYSE-150 cells; type: cell-based; conditions: Homo sapiens, one class given per A and B pair
Text: Table 7 provides IC50 values of various compounds disclosed herein, tested in cellular human esophageal squamous cell carcinoma KYSE-150 cells: […]

JMJD3 = JMJD3 (Homo sapiens, UniProt O15054); assay: In vitro enzyme inhibition assay for JMJD3 activity (TR-FRET); type: biochemical; conditions: Table 5; one class given per A and B pair
Description: This assay determines the ability of a test compound to inhibit JMJD3 demethylase activity. Baculovirus expressed JMJD3 (GenBank Accession #NM-001080424, AA1043-end) was purchased from BPS Bioscience (Cat#50115).
The enzymatic assay of JMJD3 activity is based upon Time Resolved-Fluorescence Resonance Energy Transfer (TR-FRET) detection. The ability of test compounds to inhibit the activity of JMJD3 was determined in 384-well plate format under the following reaction conditions: 5 nM JMJD3, 250 nM H3K27me3-biotin labeled peptide (Anaspec cat #64367), 0.4 to 2 μM α-ketoglutaric acid in assay buffer of 50 mM HEPES, pH7.3, 0.005% Brij35, 0.5 mM TCEP, 0.2 mg/ml BSA, 50 μM sodium L-ascorbate, and 5 μM ammonium iron(II) sulfate. Reaction product was determined quantitatively by TR-FRET after the addition of detection reagent Phycolink Streptavidin-allophycocyanin (Prozyme) and Europium-anti-H3K27me2 antibody (PerkinElmer) in the presence of 5 mM EDTA in LANCE detection buffer (PerkinElmer) at a final concentration of 50 nM and 1 nM, respectively.
The assay reaction was initiated by the following: […] of the mixture of 750 nM H3K27me3-biotin labeled peptide and 1.2 to 6 μM alpha-ketoglutaric acid with 2 μL of 11-point serial diluted inhibitor in 3% DMSO were added to each well of plate, followed by the addition of 2 μl of 15 nM JMJD3 to initiate the reaction. The reaction mixture was incubated at RT for 30 min, and terminated by the addition of 6 μL of 5 mM EDTA in LANCE detection buffer containing 100 nM Phycolink Streptavidin-allophycocyanin and 2 nM Europium-anti-H3K27me2 antibody. Plates were read by EnVisionMultilabel Reader in TR-FRET mode (excitation at 320 nm, emission at 615 nm and 665 nm) after 1 hr incubation at RT. A ratio from the readout of 665/615 was calculated for each well and fitted to determine inhibition constant (IC50).

Jarid1B, sequence (Q9UGL1 whole entry, species assumed): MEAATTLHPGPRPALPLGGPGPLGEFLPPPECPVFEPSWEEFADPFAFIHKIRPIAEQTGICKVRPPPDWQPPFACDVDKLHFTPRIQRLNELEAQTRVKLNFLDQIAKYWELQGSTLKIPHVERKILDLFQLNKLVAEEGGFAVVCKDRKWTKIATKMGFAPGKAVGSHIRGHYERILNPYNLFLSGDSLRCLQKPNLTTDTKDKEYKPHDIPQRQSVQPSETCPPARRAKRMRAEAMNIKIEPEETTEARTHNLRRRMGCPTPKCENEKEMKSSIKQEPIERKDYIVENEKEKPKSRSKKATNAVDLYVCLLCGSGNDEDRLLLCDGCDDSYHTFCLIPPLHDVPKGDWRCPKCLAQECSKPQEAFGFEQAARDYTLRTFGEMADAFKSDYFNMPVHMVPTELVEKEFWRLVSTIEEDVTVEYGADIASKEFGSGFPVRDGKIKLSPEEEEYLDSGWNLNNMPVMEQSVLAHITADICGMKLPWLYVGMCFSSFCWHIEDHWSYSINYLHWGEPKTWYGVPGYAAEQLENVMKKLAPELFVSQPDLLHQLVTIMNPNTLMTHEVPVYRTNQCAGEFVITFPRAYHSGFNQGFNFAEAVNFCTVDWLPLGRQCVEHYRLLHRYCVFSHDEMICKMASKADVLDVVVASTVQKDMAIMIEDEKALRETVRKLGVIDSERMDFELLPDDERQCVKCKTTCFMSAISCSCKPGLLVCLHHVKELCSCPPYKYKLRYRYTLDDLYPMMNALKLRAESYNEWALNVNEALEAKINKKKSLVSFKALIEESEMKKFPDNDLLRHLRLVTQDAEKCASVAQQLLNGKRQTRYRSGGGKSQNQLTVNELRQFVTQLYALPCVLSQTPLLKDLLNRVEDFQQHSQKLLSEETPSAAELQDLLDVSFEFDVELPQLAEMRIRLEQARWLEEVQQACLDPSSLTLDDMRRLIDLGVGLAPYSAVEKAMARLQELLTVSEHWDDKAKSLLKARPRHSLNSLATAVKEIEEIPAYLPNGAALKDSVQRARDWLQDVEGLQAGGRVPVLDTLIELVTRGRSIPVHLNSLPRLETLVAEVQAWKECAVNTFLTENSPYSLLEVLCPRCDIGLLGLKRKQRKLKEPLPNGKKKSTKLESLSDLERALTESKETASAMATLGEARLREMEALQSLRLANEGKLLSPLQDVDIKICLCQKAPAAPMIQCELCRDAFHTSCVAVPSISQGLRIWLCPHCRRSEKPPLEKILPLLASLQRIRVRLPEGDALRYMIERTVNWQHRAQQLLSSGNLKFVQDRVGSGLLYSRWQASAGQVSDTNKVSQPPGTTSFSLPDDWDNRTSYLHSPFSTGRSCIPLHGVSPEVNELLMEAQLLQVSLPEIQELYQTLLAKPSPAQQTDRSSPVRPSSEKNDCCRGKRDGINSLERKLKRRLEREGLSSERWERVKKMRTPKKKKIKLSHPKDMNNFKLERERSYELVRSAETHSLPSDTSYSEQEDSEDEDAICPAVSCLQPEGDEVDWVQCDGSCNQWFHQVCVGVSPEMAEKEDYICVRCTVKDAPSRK
JMJD2C, sequence (Q9H3R0 2-372): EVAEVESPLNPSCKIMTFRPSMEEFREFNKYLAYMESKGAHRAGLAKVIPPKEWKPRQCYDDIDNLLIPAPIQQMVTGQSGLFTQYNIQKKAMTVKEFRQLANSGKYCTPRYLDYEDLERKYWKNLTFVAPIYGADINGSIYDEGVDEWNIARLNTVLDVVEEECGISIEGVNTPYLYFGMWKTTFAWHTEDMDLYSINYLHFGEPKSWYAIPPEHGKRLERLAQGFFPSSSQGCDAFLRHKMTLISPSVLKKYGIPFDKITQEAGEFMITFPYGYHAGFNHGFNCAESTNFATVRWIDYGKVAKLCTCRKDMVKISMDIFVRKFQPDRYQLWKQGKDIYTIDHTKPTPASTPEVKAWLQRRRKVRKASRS

Row | SMILES | IC50 (JMJD2C) [nM] | IC50 (Jarid1B) [nM] | IC50 [1] [nM] | IC50 (JMJD3) [µM]
1 | CCc1ccc(N(C)c2ccc3c(c2)CCN(C)[C@@H]3CNc2cnccc2C(=O)O)cc1 [Example 13B, (S)-3-(((6-((4-ethylphenyl)(methyl)amino)-2-methyl-1,2,3,4-tetrahydro-isoquinolin-1-yl)methyl)amino)isonicotinic acid] | 100 to 1000 | ≤ 100 | ≤ 100 | 1 to 10
2 | CCCc1ccc(N(C)c2ccc3c(c2)CCN(C)[C@H]3CNc2cnccc2C(=O)O)cc1 [Example 14A, (R)-3-(((2-methyl-6-(methyl (4-propylphenyl)amino)-1,2,3,4-tetrahydroisoquinolin-1-yl)methyl)amino)isonicotinic acid] | 1000 to 10000 | ≤ 100 | ≤ 100 | 1 to 10
3 | CCCc1ccc(N(C)c2ccc3c(c2)CCN(C)[C@@H]3CNc2cnccc2C(=O)O)cc1 [Example 14B, (S)-3-(((2-methyl-6-(methyl (4-propylphenyl)amino)-1,2,3,4-tetrahydroisoquinolin-1-yl)methyl)amino)isonicotinic acid] | 1000 to 10000 | ≤ 100 | ≤ 100 | 1 to 10
4 | Cc1ccc(N(C)c2ccc3c(c2)CN(C)[C@H]3CNc2cnccc2C(=O)O)cc1 [Example 18A, (R)-3-(((2-methyl-5-(methyl(p-tolyl)amino)isoindolin-1-yl)methyl)amino) isonicotinic acid] | 100 to 1000 | ≤ 100 | ≤ 100 | 1 to 10
5 | Cc1ccc(N(C)c2ccc3c(c2)CN(C)[C@@H]3CNc2cnccc2C(=O)O)cc1 [Example 18B, (S)-3-(((2-methyl-5-(methyl(p-tolyl)amino)isoindolin-1-yl)methyl)amino) isonicotinic acid] | 100 to 1000 | ≤ 100 | ≤ 100 | 1 to 10
6 | Cc1ccccc1-c1ccc2c(c1)CN(C)[C@H]2CNc1cnccc1C(=O)O [Example 21A, (R)-3-(((2-methyl-5-(o-tolyl)isoindolin-1-yl)methyl)amino)isonicotinic acid] | 100 to 1000 | ≤ 100 | ≤ 100 | 1 to 10
7 | Cc1ccccc1-c1ccc2c(c1)CN(C)[C@@H]2CNc1cnccc1C(=O)O [Example 21B, (S)-3-(((2-methyl-5-(o-tolyl)isoindolin-1-yl)methyl)amino)isonicotinic acid] | 100 to 1000 | ≤ 100 | ≤ 100 | 1 to 10

Second part, the compound after the results:

Row | IC50 (JMJD2C) [nM] | IC50 (Jarid1B) [nM] | IC50 [1] [nM] | IC50 (JMJD3) [µM] | SMILES
8 | 100 to 1000 | ≤ 100 | ≤ 100 | 1 to 10 | CCc1ccc(N(C)c2ccc3c(c2)CN(C)[C@H]3CNc2cnccc2C(=O)O)cc1 [Example 19A, (R)-3-(((5-((4-ethylphenyl)(methyl)amino)-2-methylisoindolin-1-yl)methyl)amino)isonicotinic acid]
9 | 100 to 1000 | ≤ 100 | ≤ 100 | 1 to 10 | CCc1ccc(N(C)c2ccc3c(c2)CN(C)[C@@H]3CNc2cnccc2C(=O)O)cc1 [Example 19B, (S)-3-(((5-((4-ethylphenyl)(methyl)amino)-2-methylisoindolin-1-yl)methyl)amino)isonicotinic acid]
10 | 100 to 1000 | ≤ 100 | ≤ 100 | 1 to 10 | CCCc1ccc(N(C)c2ccc3c(c2)CN(C)[C@H]3CNc2cnccc2C(=O)O)cc1 [Example 20A, (R)-3-(((2-methyl-5-(methyl (4-propylphenyl)amino)isoindolin-1-yl)methyl)amino)isonicotinic acid]
11 | 100 to 1000 | ≤ 100 | ≤ 100 | 1 to 10 | CCCc1ccc(N(C)c2ccc3c(c2)CN(C)[C@@H]3CNc2cnccc2C(=O)O)cc1 [Example 20B, (S)-3-(((2-methyl-5-(methyl (4-propylphenyl)amino)isoindolin-1-yl)methyl)amino)isonicotinic acid]
